Structures are written as SMILES.

Our source for the inhibition and inhibition of growth values is ChEMBL document CHEMBL1156294, “Novel inhibitors of basal glucose transport as potential anticancer agents” (2010).

Type in all cases: functional
Experiment [1] deals with HeLa. Briefly: Inhibition of basal glucose transport in human HeLa cells assessed as inhibition of [3H]2-deoxyglucose uptake at 30 uM after 30 mins by scintillation counting.
The test system of experiment [2] is RKO. Briefly: Inhibition of basal glucose transport in human RKO cells assessed as inhibition of [3H]2-deoxyglucose uptake at 30 uM after 30 mins by scintillation counting.
In experiment [3] the test system is MCF7. Briefly: Inhibition of basal glucose transport in human MCF7 cells assessed as inhibition of [3H]2-deoxyglucose uptake at 30 uM after 30 mins by scintillation counting.
Experiment [4] has as its system NCI-H1299. Briefly: Inhibition of basal glucose transport in human H1299 cells assessed as inhibition of [3H]2-deoxyglucose uptake at 30 uM after 30 mins by scintillation counting relative to control.
Experiment [5] is described as follows: Cytotoxicity against human H1299 cells at 30 uM after 48 hrs by MTT assay relative to control. The following applies: NCI-H1299, 48 h, read-out: GI.

Turning to `COc1cccc(OC(=O)c2cc(O)c(O)c(O)c2)c1OC(=O)c1cc(O)c(O)c(O)c1`, the inhibition at 30 µM in experiment [1] came to 46.3%; in experiment [2], 57.2%; in experiment [3], 33%; in experiment [4], 58.4%. Besides, the inhibition of growth at 30 µM in experiment [5] is 36%.
In the case of `O=C(Oc1ccc(Cl)cc1OC(=O)c1cc(O)c(O)c(O)c1)c1cc(O)c(O)c(O)c1`, the inhibition at 30 µM in experiment [4] turned out to be 84.4%.
In the case of `O=C(Oc1ccccc1OC(=O)c1ccc(O)cc1)c1ccc(O)cc1`, the inhibition at 30 µM in experiment [4] was 57.5%.
For `O=C(Oc1cccc(OC(=O)c2cccc(O)c2)c1OC(=O)c1cccc(O)c1)c1cccc(O)c1`, the inhibition at 30 µM in experiment [4] was 99.7%. Further, the inhibition of growth at 30 µM in experiment [5] worked out at 59.3%.
As for `COc1cccc(OC(=O)c2cccc(O)c2)c1OC(=O)c1cccc(O)c1`, the inhibition at 30 µM in experiment [4] came out at 79%.
As for `O=C(Oc1ccc(Cl)cc1OC(=O)c1ccccc1O)c1ccccc1O`, in experiment [4], the inhibition at 30 µM was determined as 51.6%. For the same compound, the inhibition of growth at 30 µM in experiment [5] turned out to be 26.6%.
In the case of `O=C(Oc1ccc(Cl)cc1OC(=O)c1cccc(O)c1)c1cccc(O)c1`, the inhibition at 30 µM in experiment [4] came out at 93.1%. Besides, the inhibition of growth at 30 µM in experiment [5] came to 44.5%.
With `COc1cccc(OC(=O)c2cc(O)cc(O)c2)c1OC(=O)c1cc(O)cc(O)c1`, the inhibition at 30 µM in experiment [4] came to 69.4%.
In the case of `O=C(Oc1cccc(F)c1OC(=O)c1ccccc1O)c1ccccc1O`, the inhibition at 30 µM in experiment [4] came out at 51%.
In the case of `O=C(Oc1cccc(OC(=O)c2ccc(O)cc2)c1OC(=O)c1ccc(O)cc1)c1ccc(O)cc1`, the inhibition at 30 µM in experiment [4] stood at 88.7%. Moreover, in experiment [5], the inhibition of growth at 30 µM came out at 34.8%.
With `O=C(Oc1cccc(OC(=O)c2ccc(O)c(O)c2)c1OC(=O)c1ccc(O)c(O)c1)c1ccc(O)c(O)c1`, the inhibition at 30 µM in experiment [4] turned out to be 94.7%. In experiment [5], the inhibition of growth at 30 µM was found to be 42.2%.
For the compound `COc1cccc(OC(=O)c2ccc(O)c(O)c2)c1OC(=O)c1ccc(O)c(O)c1`, the inhibition at 30 µM in experiment [4] came out at 0%. The inhibition of growth at 30 µM in experiment [5] stood at 32.4%.
For the compound `O=C(Oc1cccc(F)c1OC(=O)c1cc(O)c(O)c(O)c1)c1cc(O)c(O)c(O)c1`, the inhibition at 30 µM in experiment [4] was 81.1%.
Take `O=C(Oc1ccccc1OC(=O)c1cc(O)c(O)c(O)c1)c1cc(O)c(O)c(O)c1`: the inhibition at 30 µM in experiment [4] came to 32.1%.
For `COc1cc(C(=O)Oc2cccc(OC)c2OC(=O)c2cc(OC)c(OC)c(OC)c2)cc(OC)c1OC`, the inhibition at 30 µM in experiment [4] is 33.3%. In addition, the inhibition of growth at 30 µM in experiment [5] was found to be 22.2%.
As for `COc1cc(C(=O)Oc2ccc(Cl)cc2OC(=O)c2cc(OC)c(OC)c(OC)c2)cc(OC)c1OC`, in experiment [4], the inhibition at 30 µM was 1.7%. Besides, the inhibition of growth at 30 µM in experiment [5] worked out at 20.6%.
Turning to `COc1cc(C(=O)Oc2cccc(F)c2OC(=O)c2cc(OC)c(OC)c(OC)c2)cc(OC)c1OC`, the inhibition at 30 µM in experiment [4] stood at 7.9%. The inhibition of growth at 30 µM in experiment [5] was 19.6%.
Take `O=C(Oc1cccc(F)c1OC(=O)c1ccc(O)cc1)c1ccc(O)cc1`: in experiment [4], the inhibition at 30 µM was 92.6%. Further, in experiment [5], the inhibition of growth at 30 µM is 35.9%.
`COc1cccc(C(=O)Oc2cccc(OC(=O)c3cccc(OC)c3)c2OC(=O)c2cccc(OC)c2)c1`: the inhibition at 30 µM in experiment [4] came to 66.2%.
Consider `COc1cccc(C(=O)Oc2cccc(OC)c2OC(=O)c2cccc(OC)c2)c1`, for which the inhibition at 30 µM in experiment [4] was found to be 32.1%. Moreover, in experiment [5], the inhibition of growth at 30 µM worked out at 18.3%.
Turning to `O=C(Oc1cccc(OC(=O)c2cc(O)cc(O)c2)c1OC(=O)c1cc(O)cc(O)c1)c1cc(O)cc(O)c1`, in experiment [4], the inhibition at 30 µM was determined as 98.7%. The inhibition of growth at 30 µM in experiment [5] is 41%.
On to `O=C(Oc1ccc(Cl)cc1OC(=O)c1cc(O)cc(O)c1)c1cc(O)cc(O)c1`, for which the inhibition at 30 µM in experiment [4] was found to be 95.2%. Besides, the inhibition of growth at 30 µM in experiment [5] is 38.8%.
As for `O=C(Oc1cccc(F)c1OC(=O)c1cc(O)cc(O)c1)c1cc(O)cc(O)c1`, the inhibition at 30 µM in experiment [4] was 94%. Besides, in experiment [5], the inhibition of growth at 30 µM was 35%.
For the compound `O=C(Oc1cccc(OC(=O)c2cc(O)c(O)c(O)c2)c1OC(=O)c1cc(O)c(O)c(O)c1)c1cc(O)c(O)c(O)c1`, the inhibition at 30 µM stood at 36% in experiment [1], 58.1% in experiment [2], 60.4% in experiment [3] and 86.1% in experiment [4]. For the same compound, the inhibition of growth at 30 µM in experiment [5] stood at 39.9%.
For `COc1cc(C(=O)Oc2cccc(OC(=O)c3cc(OC)c(OC)c(OC)c3)c2OC(=O)c2cc(OC)c(OC)c(OC)c2)cc(OC)c1OC`, the inhibition at 30 µM in experiment [4] came to 41.1%.
Consider `O=C(Oc1ccc(Cl)cc1OC(=O)c1ccc(O)c(O)c1)c1ccc(O)c(O)c1`, for which, in experiment [4], the inhibition at 30 µM amounted to 94.4%. Also, in experiment [5], the inhibition of growth at 30 µM turned out to be 45.2%.
`O=C(Oc1cccc(F)c1OC(=O)c1ccc(O)c(O)c1)c1ccc(O)c(O)c1`: the inhibition at 30 µM in experiment [4] was 88.7%. Moreover, the inhibition of growth at 30 µM in experiment [5] is 41.5%.
In the case of `COc1cccc(OC)c1C(=O)Oc1cccc(OC(=O)c2c(OC)cccc2OC)c1OC(=O)c1c(OC)cccc1OC`, the inhibition at 30 µM in experiment [4] was found to be 75.8%.
In the case of `COc1ccc(C(=O)Oc2cccc(OC(=O)c3ccc(OC)c(OC)c3)c2OC(=O)c2ccc(OC)c(OC)c2)cc1OC`, in experiment [4], the inhibition at 30 µM came out at 0%. In addition, the inhibition of growth at 30 µM in experiment [5] amounted to 10%.
`O=C(Oc1cccc(OC(=O)c2ccccc2O)c1OC(=O)c1ccccc1O)c1ccccc1O`: the inhibition at 30 µM in experiment [4] was 74.7%.
For the compound `COc1cccc(OC(=O)c2ccccc2O)c1OC(=O)c1ccccc1O`, the inhibition at 30 µM in experiment [4] was found to be 50.5%. Besides, the inhibition of growth at 30 µM in experiment [5] was found to be 18%.
The corresponding values for `COc1cccc(OC(=O)c2ccc(O)cc2)c1OC(=O)c1ccc(O)cc1` are 86.5% and 36.6%.
Regarding `O=C(Oc1ccc(Cl)cc1OC(=O)c1ccc(O)cc1)c1ccc(O)cc1`, the inhibition at 30 µM in experiment [4] was 79%.
